Test systems include A498; CCRF-CEM; HOP-62; IGROV-1; K562; LOX IMVI; Malme-3M; NCI-H226; RPMI-8226; RXF 393; SF-268; SK-MEL-5; SN12C; SW-620; U-251; ACHN; NCI-H522.
Common to all, as to assay: NCI tumour cell line growth inhibition, 48 h

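Exposure lasted 48 hours, with cells grown in 96-well plates and compounds tested at five concentrations. GI50: concentration for 50% inhibition of growth.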 The source made the active and inactive calls. No stated cut-off is given here; in the data, active = GI50 up to about 1.1 µM and inactive = higher.

Consider `COc1ccc(S(=O)(=O)c2ccccc2[N+](=O)[O-])cc1`, for which the GI50 in the assay with A498 was > 100 µM (inactive); with CCRF-CEM, > 100 µM (inactive); in the assay on HOP-62, > 100 µM (inactive); with IGROV-1 it was > 100 µM (inactive); in the assay on K562, > 100 µM (inactive); in the assay on LOX IMVI, 91.4 µM (inactive). For the same compound, the GI50 was 81.1 µM (inactive) in the assay on Malme-3M; > 100 µM (inactive) in the assay on NCI-H226; > 100 µM (inactive) in the assay on RPMI-8226; 55.6 µM (inactive) with RXF 393; > 100 µM (inactive) with SF-268; 65 µM (inactive) in the assay with SK-MEL-5. In addition, the GI50 was 86.1 µM (inactive) in the assay with SN12C, > 100 µM (inactive) with SW-620 and 82.6 µM (inactive) with U-251.

In the case of `CC1CCCP(=O)(c2ccccc2)CC1` (stereo not given), the GI50 in the assay with A498, with ACHN, in the assay with CCRF-CEM, in the assay on HOP-62, in the assay with IGROV-1 and in the assay with K562 was > 100 µM (inactive) throughout. The GI50 with LOX IMVI, in the assay with Malme-3M, with RPMI-8226, in the assay with RXF 393, in the assay with SF-268 and with SK-MEL-5 was > 100 µM (inactive) in each case. For the same compound, the GI50 in the assay with SN12C, with SW-620 and with U-251 was > 100 µM (inactive) throughout.

On to `COC(=O)[C@]1(C)CCCC2(C)C1CC[C@H]1C=C(C)[C@H]3CCC12C3` (stereo not given in full), for which the GI50 in the assay with ACHN was > 100 µM (inactive); in the assay on CCRF-CEM, > 100 µM (inactive); with HOP-62 it was > 100 µM (inactive); in the assay on IGROV-1 it was > 100 µM (inactive); in the assay with K562 it was > 100 µM (inactive); with LOX IMVI it was 68.2 µM (inactive). Also, the GI50 in the assay on Malme-3M was > 100 µM (inactive); in the assay with NCI-H226, > 100 µM (inactive); in the assay with NCI-H522, 45 µM (inactive); with RPMI-8226, > 100 µM (inactive); in the assay on RXF 393, 55.3 µM (inactive); with SF-268 it was > 100 µM (inactive). In addition, the GI50 was 98.2 µM (inactive) with SK-MEL-5, > 100 µM (inactive) in the assay with SN12C, > 100 µM (inactive) in the assay on SW-620 and > 100 µM (inactive) with U-251.

For `COc1ccc(C(=O)C(C(=O)C(=O)NCCCNC(=O)C(=O)C(C(=O)c2ccc(OC)cc2)c2ccc(OC)cc2)c2ccc(OC)cc2)cc1` (stereo not given), the GI50 in the assay with CCRF-CEM, with HOP-62, in the assay with IGROV-1, with K562, in the assay on LOX IMVI and in the assay on Malme-3M was > 100 µM (inactive) throughout. The GI50 in the assay on NCI-H226, in the assay with NCI-H522, with RPMI-8226, with SF-268, in the assay on SW-620 and in the assay with U-251 was > 100 µM (inactive) throughout.

`CC(=O)N[C@@H]1C(O)CN2C(=O)C(=O)O[C@H](C(O)CO)[C@@H]12` (stereo not given in full): the GI50 in the assay on A498, in the assay on ACHN, in the assay with CCRF-CEM, in the assay on HOP-62, in the assay with IGROV-1 and in the assay on K562 was > 100 µM (inactive) throughout. In addition, the GI50 in the assay with LOX IMVI, with Malme-3M, with NCI-H522, in the assay with RPMI-8226, in the assay with RXF 393 and with SF-268 was > 100 µM (inactive) in each case. The GI50 in the assay on SW-620 and with U-251 was > 100 µM (inactive) in each case.

Regarding `[O-]c1on[n+]2c1c(Nc1ccc(Cl)cc1)nc1ccccc12`, the GI50 with A498, in the assay with ACHN, in the assay with CCRF-CEM, in the assay on IGROV-1, in the assay on K562 and in the assay with LOX IMVI was > 100 µM (inactive) in each case. Besides, the GI50 with NCI-H522, in the assay with RPMI-8226, in the assay on RXF 393, in the assay on SF-268, in the assay on SK-MEL-5 and in the assay with SN12C was > 100 µM (inactive) each time. Moreover, the GI50 with SW-620 and in the assay with U-251 was > 100 µM (inactive) in each case.

With `O=C(NN1C(=O)CSC1c1ccc(Cl)c(Cl)c1)c1ccncc1` (stereo not given), the GI50 is 29.9 µM (inactive) in the assay with A498; 38.4 µM (inactive) in the assay with ACHN; 77.3 µM (inactive) in the assay on CCRF-CEM; 34.4 µM (inactive) in the assay on IGROV-1; 37.8 µM (inactive) in the assay with K562; 66.4 µM (inactive) in the assay with LOX IMVI. Also, the GI50 with Malme-3M is 87.7 µM (inactive); in the assay with NCI-H522 it was 72.8 µM (inactive); with RPMI-8226, 42.9 µM (inactive); in the assay on RXF 393, 58.3 µM (inactive); in the assay with SF-268, 78.3 µM (inactive); with SK-MEL-5 it was 46.9 µM (inactive). The results for the GI50 in the assay on SN12C, with SW-620 and in the assay with U-251 were 75.9 µM (inactive), > 100 µM (inactive) and > 100 µM (inactive), respectively.

With `COc1nc(N)c(NC(C)=O)c(=O)n1C`, the GI50 in the assay with A498, with ACHN, with CCRF-CEM, with IGROV-1, in the assay with K562 and in the assay with LOX IMVI was > 100 µM (inactive) each time. For the same compound, the GI50 in the assay on Malme-3M is > 100 µM (inactive); in the assay on NCI-H226, 0.14 µM (active); in the assay on RPMI-8226, > 100 µM (inactive); with RXF 393, > 100 µM (inactive); with SF-268, > 100 µM (inactive); in the assay with SN12C, > 100 µM (inactive). For the same compound, the GI50 in the assay on SW-620 and in the assay on U-251 was > 100 µM (inactive) throughout.

On to `CC1=NN(C(=O)c2ccc(Cl)cc2)C(=O)/C1=C/c1cccc([N+](=O)[O-])c1`, for which the GI50 in the assay on A498, in the assay with ACHN, in the assay with CCRF-CEM, with HOP-62, in the assay on IGROV-1 and in the assay with K562 was > 100 µM (inactive) throughout. The GI50 in the assay with LOX IMVI, with Malme-3M, with NCI-H522, in the assay with RPMI-8226, in the assay on RXF 393 and with SF-268 was > 100 µM (inactive) in each case. Moreover, the GI50 with SK-MEL-5, in the assay with SN12C, in the assay on SW-620 and in the assay with U-251 was > 100 µM (inactive) throughout.

Regarding `COC1(OC)CCC2(C)OC(c3ccccc3)C1O2` (stereo not given), the GI50 in the assay on ACHN, in the assay with CCRF-CEM, in the assay on HOP-62, in the assay on IGROV-1, in the assay with K562 and in the assay with LOX IMVI was > 100 µM (inactive) in each case. The GI50 in the assay with Malme-3M, in the assay with NCI-H226, in the assay with NCI-H522, in the assay on RPMI-8226, in the assay on RXF 393 and with SF-268 was > 100 µM (inactive) throughout. For the same compound, the GI50 in the assay with SN12C, in the assay with SW-620 and with U-251 was > 100 µM (inactive) throughout.

Take `COc1ccc(-c2cc(N3CCN(c4ccc(Cl)cc4)CC3)c(C#N)c(=O)o2)cc1`: the GI50 was 16.4 µM (inactive) with A498; 6.64 µM (inactive) in the assay on ACHN; 10.9 µM (inactive) with IGROV-1; 10.4 µM (inactive) in the assay on LOX IMVI; 7.74 µM (inactive) in the assay with Malme-3M; 2.52 µM (inactive) with NCI-H226. Moreover, the GI50 is 12.8 µM (inactive) in the assay on RPMI-8226; 5.12 µM (inactive) with RXF 393; 5.38 µM (inactive) in the assay on SF-268; 11.9 µM (inactive) in the assay with SK-MEL-5; 15.1 µM (inactive) in the assay with SN12C; 40 µM (inactive) in the assay on SW-620. Also, the GI50 in the assay with U-251 is 21.2 µM (inactive).

On to `COC(=O)Cc1cc(=O)n2c([nH]c3ccccc32)c1C#N`, for which the GI50 with A498 is > 100 µM (inactive); in the assay on ACHN it was 63.1 µM (inactive); with HOP-62, > 100 µM (inactive); in the assay on IGROV-1, > 100 µM (inactive); with K562, > 100 µM (inactive); in the assay on LOX IMVI it was > 100 µM (inactive). Besides, the GI50 in the assay with Malme-3M was 81.3 µM (inactive); in the assay on NCI-H226, > 100 µM (inactive); in the assay on RPMI-8226, 56.4 µM (inactive); with RXF 393 it was 97.3 µM (inactive); in the assay on SF-268, > 100 µM (inactive); in the assay on SK-MEL-5, 34.8 µM (inactive). In addition, the figures for the GI50 in the assay with SN12C, in the assay on SW-620 and with U-251 were 82.6 µM (inactive), > 100 µM (inactive) and 49.3 µM (inactive), respectively.

With `Cc1ccc(Oc2ccc(C)cc2[N+](=O)[O-])cc1`, the GI50 with A498 is > 100 µM (inactive); in the assay on ACHN, 69.2 µM (inactive); in the assay on CCRF-CEM, 36.7 µM (inactive); in the assay with HOP-62, > 100 µM (inactive); in the assay on IGROV-1, > 100 µM (inactive); with K562 it was 38.5 µM (inactive). Further, the GI50 with LOX IMVI was 40.1 µM (inactive); in the assay with Malme-3M, > 100 µM (inactive); in the assay with NCI-H226, 57.5 µM (inactive); in the assay with RPMI-8226, 57.8 µM (inactive); in the assay with RXF 393 it was 26.5 µM (inactive); in the assay with SF-268 it was > 100 µM (inactive). Further, the GI50 is 29.8 µM (inactive) in the assay on SK-MEL-5, > 100 µM (inactive) in the assay with SN12C, > 100 µM (inactive) in the assay with SW-620 and 25.8 µM (inactive) in the assay on U-251.

Source of the values: ChEMBL document CHEMBL1201862, “PubChem BioAssay data set” (2004).
